Test results reported in patent publication US10981932B2, “Macrocyclic indole derivatives” (Bayer Aktiengesellschaft, priority 2016, dated 2021).
Like-named read-outs stand apart in the source and are kept apart here.

Assays:
SUDHL5 [1] = assay: Anti-proliferative effect (CellTiter-Glo, 72 h), SUDHL5; assay type: cell-based; conditions: Homo sapiens, SU-DHL-5, 72 h, SUDHL5 cells, antiproliferation, 72 h incubation, median, read-out: Antiproli SUDHL5 [M] (median)
Summary of the method: (§1)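 Luminescence from CellTiter-Glo, read 10 min after reagent addition, reports viable cell content after 72 h of compound treatment at 37 °C. A reference plate read at day 0 gives the starting baseline.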

SUDHL10 [2] = assay: Induction of caspase-3/7 activity (Caspase-Glo 3/7), SUDHL10; assay type: cell-based; conditions: Homo sapiens, SU-DHL10, 3 h, caspase-3/7 induction, SUDHL10 cells, 3 h treatment; median
Summary of the method: (§2)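 Apoptosis induction measured as caspase-3/7 activity (Caspase-Glo 3/7) in DLBCL lines after 3 h treatment at 37 °C; EC50 derived relative to the reference compound's maximal induction, with C0 fixed at 1.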

SUDHL10 [3] = assay: Anti-proliferative effect (CellTiter-Glo, 72 h), SUDHL10; assay type: cell-based; conditions: Homo sapiens, SU-DHL10, 72 h, SUDHL10 cells, antiproliferation, 72 h incubation, median, read-out: Antiproli SUDHL10 [M] (median)
Procedure: Assessment of the Anti-Proliferative Effect of Compounds in Different Cell Lines
The impact of compounds on the proliferation of different cell lines was assessed using the CellTiter-Glo® Luminescent Cell Viability reagent from Promega (G7573). Of note, SUDHL10 and SUDHL5 (DLBCL), NCI-H929 (Multiple Myeloma), A2780 (ovarian carcinoma) as well as MV-4-11(AML) cells are sensitive to MCL-1 inhibition.
In parallel, cells were plated in a reference (day 0) plate for time zero determination.
Rim wells were excluded. The cells were incubated for 72 h hours in a humidified incubator at 37° C. The day 0 plate was measured by adding 30 μl/well of CTG solution (CellTiter-Glo® Luminescent Cell Viability reagent, Promega G7573) to time zero wells in the reference plate followed by a 10 minutes incubation and luminescence reading at 0.1 ms, using the PHERAstar FS microplate reader (BMG Labtech).
After 72 h incubation, the treated plates were measured in the same way as the day 0 plate mentioned above.

SUDHL5 [4] = assay: Induction of cytotoxicity (CellTiter-Glo, 5 h), SUDHL5; conditions: Homo sapiens, SU-DHL-5, 5 h, read-out: Cytotox SUDHL5 [M] (median), SUDHL5 cells, cytotoxicity induction, CellTiter-Glo, 5 h incubation, median
MCL-1 = MCL-1 (Homo sapiens, UniProt Q07820); assay: Protein-protein interaction assay MCL-1/Noxa BH3 peptide (MCL-1 assay), TR-FRET; assay type: binding; conditions: MBP-MCL-1 / Noxa BH3-derived peptide, median
Summary of the method: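 Inhibition values were normalized between DMSO controls with all reagents and controls lacking MCL-1. The binding competition used 1 nM MBP-MCL-1 in pH 7 Tris buffer containing 50 mM KF and 100 mM NaCl, with a 10 min compound preincubation at 22 °C.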

A2780 = assay: Anti-proliferative effect (CellTiter-Glo, 72 h), A2780; assay type: cell-based; conditions: A2780 cells, median, read-out: IC50 antiproliferation assay A2780 [M] (median)
Summary of the method: as §1

SUDHL5 [5] = assay: Induction of caspase-3/7 activity (Caspase-Glo 3/7), SUDHL5; assay type: cell-based; conditions: Homo sapiens, SU-DHL-5, 3 h, caspase-3/7 induction, SUDHL5 cells, 3 h treatment; median
Summary of the method: as §2

SUDHL10 [6] = assay: Induction of cytotoxicity (CellTiter-Glo, 5 h), SUDHL10; conditions: Homo sapiens, SU-DHL10, 5 h, read-out: Cytotox SUDHL10 [M] (median), SUDHL10 cells, cytotoxicity induction, CellTiter-Glo, 5 h incubation, median

MCL-1, sequence (Q07820 whole entry): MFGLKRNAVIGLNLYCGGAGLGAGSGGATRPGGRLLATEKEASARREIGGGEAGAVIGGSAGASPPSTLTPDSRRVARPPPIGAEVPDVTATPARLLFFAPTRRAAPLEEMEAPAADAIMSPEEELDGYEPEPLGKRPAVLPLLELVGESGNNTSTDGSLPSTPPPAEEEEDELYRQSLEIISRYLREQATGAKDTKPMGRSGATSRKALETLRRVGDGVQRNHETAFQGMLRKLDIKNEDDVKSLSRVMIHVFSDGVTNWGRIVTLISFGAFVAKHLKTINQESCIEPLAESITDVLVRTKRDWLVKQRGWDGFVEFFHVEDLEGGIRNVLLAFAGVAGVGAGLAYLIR

SMILES	IC50 (SUDHL5 [1]) [M]	EC50 (SUDHL10 [2]) [µM]	IC50 (SUDHL10 [3]) [M]	IC50 (SUDHL5 [4]) [M]	IC50 (MCL-1) [nM]	IC50 (A2780; Homo sapiens, A2780, 72 h) [M]	EC50 (SUDHL5 [5]) [µM]	IC50 (SUDHL10 [6]) [M]	IC50 (A2780) [M]
COCCn1nc(C2CC2)c2c1COCCCCn1c(C(=O)O)c(CCCOc3cccc4c3CCCC4)c3cccc-2c31 (racemic) [Example 164, (rac)-3-Cyclopropyl-1-(2-methoxyethyl)-7-[3-(5,6,7,8-tetrahydronaphthalen-1-yloxy)propyl]-1,10,11,12,13,15-hexahydropyrazolo[4′,3′:9,10][1,6]oxazacycloundecino[8,7,6-hi]indole-8-carboxylic Acid]	1.6e-05	> 33	1.69e-05	9.23e-06	10.7	2.03e-05	12	3.07e-05	–
Cn1nc(CN2CC(F)(F)C2)c2c1COCCCCn1c(C(=O)O)c(CCCOc3cccc4ccccc34)c3cccc-2c31 (racemic) [Example 180, (rac)-3-[(3,3-difluoroazetidin-1-yl)methyl]-1-methyl-7-[3-(naphthalen-1-yloxy)propyl]-1,10,11,12,13,15-hexahydropyrazolo[4′,3′:9,10][1,6]oxazacycloundecino[8,7,6-hi]indole-8-carboxylic Acid]	7.77e-06	28.2	8.97e-06	1.1e-05	17.7	2.36e-05	14.5	3.11e-05	–
COCc1nn(C)c2c1-c1cccc3c(CCCOc4cccc5ccccc45)c(C(=O)O)n(c13)CCCCN(C)C2 (racemic) [Example 183, (rac)-3-(methoxymethyl)-1,14-dimethyl-7-[3-(naphthalen-1-yloxy)propyl]-10,11,12,13,14,15-hexahydro-1H-pyrazolo[3′,4′:8,9][1,6]diazacycloundecino[10,11,1-hi]indole-8-carboxylic Acid]	2.43e-06	5.89	4.14e-06	1.88e-06	2.25	> 3.3e-05	1.46	5.55e-06	2.39e-05
Cn1nc2c(c1C(F)(F)F)-c1cccc3c(CCCOc4cccc5ccccc45)c(C(=O)O)n(c13)CCCCOC2 (racemic) [Example 186, (rac)-2-methyl-7-[3-(naphthalen-1-yloxy)propyl]-3-(trifluoromethyl)-2,10,11,12,13,15-hexahydropyrazolo[4′3′:9,10][1,6]oxazacycloundecino[8,7,6,6-hi]indole-8-carboxylic Acid]	8.69e-06	18.6	1.4e-05	1.14e-05	15.7	> 3.3e-05	9.85	2.61e-05	2.28e-05
CCCc1nn(C)c2c1-c1c(C)ccc3c(CCCOc4cccc5ccccc45)c(C(=O)O)n(c13)CCCCOC2 (racemic) [Example 187, (rac)-1,4-dimethyl-7-[3-(naphthalen-1-yloxy)propyl]-3-propyl-1,10,11,12,13,15-hexahydropyrazolo[4′,3′:9,10][1,6]oxazacycloundecino[8,7,6-hi]indole-8-carboxylic Acid]	7.27e-06	13.3	1.41e-05	3.85e-06	2.61	2.17e-05	3.71	1.07e-05	> 3.3e-05
Cc1c2c(nn1C)CCCCCCn1c(C(=O)O)c(CCCOc3cccc4ccccc34)c3cccc-2c31 (racemic) [Example 190, (rac)-2,3-dimethyl-7-[3-(1-naphthyloxy)propyl]-10,11,12,13,14,15-hexahydro-2H-pyrazolo[4′,3′:4,5]azacycloundecino[3,2,1-hi]indole-8-carboxylic Acid]	2.35e-06	7.26	5.34e-06	3.85e-06	5.46	2.02e-05	3.13	9.19e-06	–
CCCc1nn(C)c2c1-c1c(C)ccc3c(CCCOc4cccc5ccccc45)c(C(=O)O)n(c13)CCCN(C)C2 (racemic) [Example 193, (rac)-7,9,12-trimethyl-1-[3-(naphthalen-1-yloxy)propyl]-1-propyl-4,5,6,7,8,9-hexahydropyrazolo[3′,4′:7,8][1,5]diazecino[9,10,1-hi]indole-2-carboxylic Acid]	4.45e-06	8.35	7.14e-06	2.3e-06	2.33	1.9e-05	2.47	7.65e-06	–
CCc1nn(CCN2CCOCC2)c2c1-c1cccc3c(CCCOc4cccc5ccccc45)c(C(=O)O)n(c13)CCCCOC2 (racemic) [Example 198, (rac)-3-ethyl-1-[2-(morpholin-4-yl)ethyl]-7-[3-(naphthalen-1-yloxy)propyl]-1,10,11,12,13,15-hexahydropyrazolo[4′,3′:9,10][1,6]oxazacycloundecino[8,7,6-hi]indole-8-carboxylic Acid]	3.35e-06	6.94	7.48e-06	2.05e-06	2.8	2.25e-05	1.72	6.77e-06	–
CCc1c2c(nn1CCN1CCOCC1)COCCCCn1c(C(=O)O)c(CCCOc3cccc4ccccc34)c3ccc(C)c-2c31 (racemic) [Example 204, (rac)-3-ethyl-4-methyl-2-[2-(morpholin-4-yl)ethyl]-7-[3-(naphthalen-1-yloxy)propyl]-2,10,11,12,13,15-hexahydropyrazolo[4′,3′:9,10][1,6]oxazacycloundecino[8,7,6-hi]indole-8-carboxylic Acid]	4.17e-06	6.09	5.15e-06	1.9e-06	3.75	1.78e-05	1.73	5.63e-06	–
COc1c2c(nn1C)COCCCCn1c(C(=O)O)c(CCCOc3cccc4ccccc34)c3cccc-2c31 (racemic) [Example 207, (rac)-3-methoxy-2-methyl-7-[3-(naphthalen-1-yloxy)propyl]-2,10,11,12,13,15-hexahydropyrazolo[4′,3′:9,10][1,6]oxazacycloundecino[8,7,6-hi]indole-8-carboxylate]	5.28e-06	11.4	7.76e-06	4.45e-06	6.81	2.47e-05	4.85	1.08e-05	–
Cn1nc(COC2CC2)c2c1COCCCCn1c(C(=O)O)c(CCCOc3cccc4ccccc34)c3cccc-2c31 (racemic) [Example 213, (rac)-3-[(cyclopropyloxy)methyl]-1-methyl-7-[3-(naphthalen-1-yloxy)propyl]-1,10,11,12,13,15-hexahydropyrazolo[4′3′:9,10][1,6]oxazacycloundecino[8,7,6,6-hi]indole-8-carboxylic Acid]	2.49e-06	> 33	5.12e-06	> 3.3e-05	13.4	2.91e-05	> 33	> 3.3e-05	–
Cn1nc(CC(F)(F)F)c2c1COCCCCn1c(C(=O)O)c(CCCOc3cccc4ccccc34)c3cccc-2c31 (racemic) [Example 219, (rac)-1-methyl-7-[3-(naphthalen-1-yloxy)propyl]-3-(2,2,2-trifluoroethyl)-1,10,11,12,13,15-hexahydropyrazolo[4′,3′:9,10][1,6]oxazacycloundecino[8,7,6-hi]indole-8-carboxylic Acid]	9.95e-06	> 33	1.36e-05	9.71e-06	14	> 3.3e-05	12.8	2.47e-05	–
